Experimental data taken from patent publication US7045531B1, “Composition comprising a metal chelator and a method of treating amyloidosis by administering the metal chelator” (The General Hospital Corporation, priority 1997, dated 2006).
Like-named read-outs stand apart in the source and are kept apart here. Blank lines part the entries; values can stand above or below the molecule they belong to.

Columns and labels:
Aβ1-42 [1] = biological target: T1, Aβ1-42 (Homo sapiens, UniProt P05067); experiment: Effect of metal chelators on H2O2 production from Aβ1-42; type: biochemical; conditions: chelator 200 μM; 1 μM Fe^3+
T1 sequence (P05067 672-713 limits assumed): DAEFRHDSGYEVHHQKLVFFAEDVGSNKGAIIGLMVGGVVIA

AD = conditions: twice daily deep intramuscular injections; cited from earlier work
[2] = Metal reduction assay, Cu^2+ (BC indicator); type: biochemical; conditions: Cu^2+ 10 μM; PBS pH 7.4; 1 hr, 37° C.
Description: (§1) Polypeptides (10 μM) or Vitamin C (100 μM), metal ions (10 μM, Fe(NO3)3 or Cu(NO3)2), and reduced metal ion indicators, bathophenanthrolinedisulfonic acid (BP, for Fe^2+, Sigma, 200 μM) or bathocuproinedisulfonic acid (BC, for Cu^+, Sigma, […]), were coincubated in phosphate buffered saline (PBS), pH 7.4, for 1 hr at 37° C. The metal ion solutions were prepared by direct dilution in the buffer from their aqueous stocks purchased from National Institute of Standards and Technology (NIST). Absorbances were then measured at 536 nm (Fe^2+-BP complex) and 483 nm (Cu^+-BC complex), respectively, using a 96-well plate reader (SPECTRAmax 250, Molecular Devices, Calif.). In control samples, both metal ion and indicator were present to determine the background buffer signal. As a further control, both metal ion and peptide were present in the absence of indicator to estimate the contribution of light scattering due to turbidity to the absorbance reading at these wavelengths. The net absorbances (ΔA) at 536 nm or 483 nm were obtained by deducting the absorbances from these controls from the absorbances generated by the peptide and metal in the presence of the respective indicator.

[3] = Metal reduction assay, Fe^3+ (BP indicator); type: biochemical; conditions: Fe^3+ 10 μM; PBS pH 7.4; 1 hr, 37° C.
Description: as §1, with “The metal reduction assay was performed using a 96-well microtiter plate (Costar) based upon a modification of established protocols (Landers, J. W., et al., Amer. Clin. Path. 29:590 (1958); Landers. J. W. et al., Clinica Chimica Acta 3:329 (1958)). Polypeptides” for “Polypeptides”
The concentrations of reduced metal ions (Fe^2+ or Cu^+) were quantified based on the formula: Fe^2+ or Cu^+ (˜M)=A*10^6/(L*M), where L is the measured equivalent vertical pathlength for a well of 300 μL volume as described in the instrument's specifications manual (0.856 cm for Fe^2+; 1.049 cm for Cu^+); M is the known molecular absorbance (M^−1 cm^−1) which is 7124 (for Fe^2+-BP complex) or 2762 (for Cu^+-BC complex).

[4] = TBARS assay of OH. production by peptides; type: biochemical; conditions: 1 μM Fe^3+ or Cu^2+
Description: The Thiobarbituric Acid-Reactive Substance (TBARS) assay for incubation mixtures with Fe^3+ or Cu^2+ was performed in a 96-well microtiter format modified from established protocols (Gutteridge et al. Biochim. Biophys. Acta 759: 38–41 (1983)). Aβ peptide species (10 μM) or Vitamin C (100 μM), were incubated with Fe^3+ or Cu^2+ (1 μM) and deoxyribose (7.5 mM, Sigma) in PBS, pH 7.4. Following incubation (37° C., 1 hour), glacial (17 M) acetic acid and 2-thiobarburic acid (1%, w/v in 0.05 M NaOH, Sigma) were added and heated (100° C., 10 min). The final mixtures were placed on ice for 1–3 minutes before absorbances at 532 nm were measured. The net absorbance change for each sample were obtained by deducting the absorbance from a control sample consisting of identical chemical components except for the Vitamin C or Aβ peptides.

[5] = Cu^+ generation / metal reduction (Example 2); type: biochemical; conditions: 10 μM in PBS; Cu^2+ 10 μM; 30 minutes, 37° C.
Description: This method is modified from a protocol assaying serum copper and iron (Landers, J. W., et al., Amer. J. Clin. Path. 29:590 (1958)). It is based on the fact that there are optimal visible absorption wavelengths of 483 nm and 535 nm for Cu^+ complexed with bathocuproinedisulfonic (BC) anion and Fe^2+ coordinated by bathophenanthrolinedisulfonic (BP) anion, respectively.
Aβ (10 μM in PBS, pH 7.4 or 6.8, as shown) was incubated for 30 minutes (37° C.) in the presence of Cu^2+ 10 μM±Zn^2+ 10 μM). Cu^+ levels (n=3, ±SD) were assayed against a standard curve.

[6] = cited from earlier work; for Kd: physiological pH
[7] = system: Cu^2+-induced Aβ1-40 or Aβ1-42 SDS-resistant polymers; experiment: Dissolution of in vitro generated SDS-resistant Aβ polymers; type: biochemical, human; conditions: polymers generated at pH 7.4
Aβ1-40 = Aβ1-40 (Homo sapiens, UniProt P05067); conditions: pH 7.4; EDTA chelation
Aβ1-40, sequence (P05067 672-711 limits assumed): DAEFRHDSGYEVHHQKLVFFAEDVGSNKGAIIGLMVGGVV

Aβ1-42 [8] = biological target: T1, Aβ1-42; experiment: Modulation of SDS-resistant polymerization of Aβ1-42; type: biochemical; conditions: TCEP 100 μM; with and without Cu^2+; over 3 days
Description: Solution concentrations of metal ion and H2O2 were 30 μM and 100 μM, respectively. […] Argon was continuously bubbled through the buffer for 2 h (at 20° C.) before the remainder of the incubation components were added.
It is possible that the decreased polymerization may be due to chelation of Cu^2+ by BC, however given the low binding affinity of BC for Cu^2+ compared with Aβ, it seems likely that the chelation of […] by BC prevents it from inducing SDS-resistant Aβ polymerization. Therefore, Aβ may undergo a hydroxyl radical modification that promotes its assembly into SDS-resistant polymers.

[9] = Aβ metal-capture ELISA, competition analysis of binding to Cu^2+; conditions: pH 7.4; read-out: Kd, high affinity saturable Cu^2+ binding site
Description: Aβ1-40 (1.5 ng/well) was incubated (37° C., 2 hr) in the wells of Cu^2+ coated microtiter plates (Xenopore, Hawthorne, N.J.) with increasing concentrations of Cu^2+ (1–100 nM) as described by Moir et al., Journal of Biological Chemistry (submitted). Remaining ligand binding sites on well surfaces were blocked with 2% gelatin in tris-buffered saline (TBS) (3 hr at 37° C.) prior to overnight incubation at room temperature with the anti-Aβ mAb 6E10 (Senetek, Maryland Heights, Mich.). Anti-mouse IgG coupled to horseradish peroxidase was then added to each well and incubated for 3 hr at 37° C. Bound antibodies were detected by a 30 minute incubation with stable peroxidase substrate buffer/3,3′,5,5′-Tetramethyl benzidine (SPSB/TMB) buffer, followed by the addition of 2 M sulfuric acid and measurement of the increase in absorbance at 450 nm.
All assays were performed in triplicate and are means±SD, n=3. […] The affinity of Aβ for Cu^2+ is higher than that for Zn^2+ (Bush, A. I., et al., J. Biol. Chem. 269: 12152 (1994)). […] This is supported by the fact that there is both a pH sensitive and insensitive interaction with different metal ions.

[10] = SDS-resistant polymerization of Aβ peptides with Cu^2+ (Western blot, image analysis); type: biochemical; conditions: after 5 d; for conversion of the monomer to dimer / conversion of the monomer to trimer: Cu^2+ 30 μM
Description: Following incubation (37° C.), aliquots of each reaction (2 ng peptide) were collected at 0 d, 1 d, 3 d and 5 d and western blotted using anti-Aβ monoclonal antibody 8E10 (FIG. 9). Migration of the molecular size markers are indicated (kDa). […] It should be noted that other means of visualizing and/or determining the presence or absence of polymerization other than western blot analysis may be used. Such other means include but are not limited to density sedimentation by centrifugation of the samples.
As above, electronic images captured using the Fluoro-S Image Analysis System (Bio-Rad, Hercules, Calif.) were analyzed using Multi-Analyst Software (Bio-Rad, Hercules, Calif.).
(0–30 μM) at pH 7.4 and 6.6 and the samples analyzed by Western blot and the signal quantitated using the Fluoro-S Image Analysis System (Bio-Rad, Hercules, Calif.) as previously described.

effect on H2O2 formation by Aβ1-42 (Aβ1-42 [1]): no effect
Molecule: CC(=O)N(O)CCCCCNC(=O)CCC(=O)N(O)CCCCCNC(=O)CCC(=O)N(O)CCCCCN [DFO, Desferrioxamine]
side effects (AD): anaemia

Molecule: rat Aβ1-40: Rat/mouse Aβ1-40 with substitutions R5G, Y10F, H13R (DAEFGHDSGFEVRHQKLVFFAEDVGSNKGAIIGLMVGGVV; Amyloid-beta protein 40; UniProt P12023 672-711, looked up, fragment)
available Cu^2+ reduced [2]: reduced no Cu^2+ | available Fe^3+ reduced [3]: did not significantly facilitate the reduction of Fe^3+ | OH. generation [4]: did not generate OH. | Cu^2+ reduction / redox reactivity [5]: does not manifest the redox reactivity | KA, zinc, single binding site [6]: 3.8 µM

reversibility of Cu^2+-induced Aβ1-40 aggregation (Aβ1-40): reversible
Molecule: O=C(O)CN(CCN(CC(=O)O)CC(=O)O)CC(=O)O [EDTA, ethylenediaminetetra acetic acid]
effect on amount of Aβ1-40 or Aβ1-42 SDS-resistant polymers [7]: less effective

Molecule: Cl.O=C(O)CCP(CCC(=O)O)CCC(=O)O [TCEP, Tris(2-Carboxyethyl)-Phosphine Hydrochloride]
effect on level of polymerization of Aβ1-42 (Aβ1-42 [8]): significantly reduced the level of polymerization

Molecule: Aβ1-40: synthetic human Aβ1-40 peptide
Kd [9]: 0.9 nM | conversion of the monomer to dimer ([10]; pH 6.6): 29% | conversion of the monomer to trimer ([10]; pH 6.6): 2% | conversion of the monomer to dimer ([10]; pH 7.4): 42% | conversion of the monomer to trimer ([10]; pH 7.4): 9% | peptide converted to the SDS-resistant dimer ([10]; no metal, pH 6.6, 7.4 or 9.0): Less than 4% | available Cu^2+ reduced [2]: 60% | available Fe^3+ reduced [3]: 12% | Kd ([6]; read-out: KD, high affinity zinc binding, 1:1 (Zn^2+:Aβ)): 107 nM | Kd ([6]; read-out: KD, low affinity zinc binding, 2:1 stoichiometry): 5200 nM
